One may read the IC50 as the point on the concentration scale where inhibition reaches its midpoint. Low readings indicate inhibition by little substance, high ones a need for much substance.

Consider 17 compounds from patent publication US20230286958A1, “PLASMA KALLIKREIN INHIBITORS” (Merck Sharp & Dohme LLC, priority 2020, published 2023).

One assay addresses human Factor XIa (Homo sapiens (Human), UniProt P03951). The assay is described as follows: Factor XIa Assay (fluorogenic substrate GPR-AFC). The class given is biochemical. As to conditions: Factor XIa (FXIa). The protocol: (§1) The effectiveness of a compound of the present invention as an inhibitor of Coagulation Factor XIa can be determined using a relevant purified serine protease, and an appropriate synthetic substrate. The rate of hydrolysis of the chromogenic or fluorogenic substrate by the relevant serine protease was measured both in the absence and presence of compounds of the present invention. Assays were conducted at room temperature or at 37° C. […] A decrease in the rate of fluorescence change in the presence of inhibitor is indicative of enzyme inhibition. Such methods are known to one skilled in the art. The results of this assay are expressed as the half-maximal inhibitory concentrations (IC50), or the inhibitory constant, Ki.
Compounds were pre-incubated for 30 minutes at 25° C. with human (0.04 nM) Factor XIa in 50 mM HEPES buffer with 150 mM sodium chloride, 5 mM calcium chloride, 0.1% PEG 8000, pH 7.4. […] The % inhibition for each data point was calculated from the data and analyzed using the log (inhibitor) vs. response four parameters equation to determine the half-maximal inhibitory concentrations (IC50). The IC50 were converted to equilibrium inhibitory constants (Ki) using the Cheng-Prusoff equation.

A further assay has as its target Human plasma kallikrein (Homo sapiens (Human), UniProt P03952). The assay is described as follows: Kallikrein Assay (fluorogenic substrate Acetyl-K-P-R-AFC). The class given is biochemical. To be noted: Plasma Kallikrein (PKal). How it is done: as §1, with “Kallikrein” for “Coagulation Factor XIa”
Kallikrein determinations were made in 50 mM HEPES buffer at pH 7.4 containing 150 mM NaCl, 5 mM CaC12, and 0.1% PEG 8000 (polyethylene glycol; Fisher Scientific). Determinations were made using purified Human plasma kallikrein at a final concentration of 0.5 nM (Enzyme Research Laboratories) and the synthetic substrate, Acetyl-K-P-R-AFC (Sigma # C6608) at a concentration of […].
Times required to achieve equilibration between enzyme and inhibitor were determined in control experiments. […] IC50 was determined by inflection point from a four parameter logistic curve fit. Ki was calculated using the Cheng Prusoff equation, Ki = IC50/(1+([S]/Km)).

Sequence of Human plasma kallikrein (P03952 391-638): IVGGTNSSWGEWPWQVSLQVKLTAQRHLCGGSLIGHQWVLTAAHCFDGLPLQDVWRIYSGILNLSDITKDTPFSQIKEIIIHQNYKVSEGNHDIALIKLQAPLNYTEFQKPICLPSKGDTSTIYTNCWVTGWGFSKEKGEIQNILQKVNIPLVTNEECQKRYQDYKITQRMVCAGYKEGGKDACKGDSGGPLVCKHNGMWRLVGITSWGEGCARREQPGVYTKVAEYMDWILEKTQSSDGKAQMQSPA
Sequence of Human plasma kallikrein (P03952 20-390 partner): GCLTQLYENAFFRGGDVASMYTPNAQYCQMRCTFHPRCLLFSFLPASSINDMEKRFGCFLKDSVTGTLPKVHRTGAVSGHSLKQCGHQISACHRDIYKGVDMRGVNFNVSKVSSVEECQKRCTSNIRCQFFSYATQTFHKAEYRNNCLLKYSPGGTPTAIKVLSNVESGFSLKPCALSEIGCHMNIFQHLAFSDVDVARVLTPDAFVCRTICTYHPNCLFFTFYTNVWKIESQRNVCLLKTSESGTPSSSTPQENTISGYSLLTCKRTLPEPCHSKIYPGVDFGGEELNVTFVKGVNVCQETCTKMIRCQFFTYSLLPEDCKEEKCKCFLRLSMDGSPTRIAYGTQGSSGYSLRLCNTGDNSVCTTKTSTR
Sequence of human Factor XIa (P03951 388-625 limits assumed): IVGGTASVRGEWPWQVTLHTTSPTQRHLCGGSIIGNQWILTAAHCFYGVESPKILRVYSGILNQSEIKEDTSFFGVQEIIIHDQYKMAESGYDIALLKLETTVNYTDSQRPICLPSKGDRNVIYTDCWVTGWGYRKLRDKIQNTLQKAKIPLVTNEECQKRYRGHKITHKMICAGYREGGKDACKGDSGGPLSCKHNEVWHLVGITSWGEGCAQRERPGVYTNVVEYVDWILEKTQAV
Sequence of human Factor XIa (P03951 19-387 partner limits assumed): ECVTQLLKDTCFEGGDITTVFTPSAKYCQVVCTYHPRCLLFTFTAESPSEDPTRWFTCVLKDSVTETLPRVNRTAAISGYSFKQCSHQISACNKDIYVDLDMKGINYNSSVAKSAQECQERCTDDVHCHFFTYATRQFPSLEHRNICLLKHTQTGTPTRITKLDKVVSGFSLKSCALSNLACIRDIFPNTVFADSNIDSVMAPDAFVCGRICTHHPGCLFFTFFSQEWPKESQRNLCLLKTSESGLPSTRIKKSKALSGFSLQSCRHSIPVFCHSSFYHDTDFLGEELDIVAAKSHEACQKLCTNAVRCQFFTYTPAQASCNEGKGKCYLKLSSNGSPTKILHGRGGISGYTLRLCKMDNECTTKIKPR

As for `CC(c1ccc(N2CC3CC3C2=O)nc1)n1cc(NC(=O)c2cncc(-c3c(C(F)F)ccc(Cl)c3F)n2)cn1` (single isomer, unassigned) [Example 11, 6-(3-Chloro-6-(difluoromethyl)-2-fluorophenyl)-N-(1-((R or S)-1-(6-((1R,5S or 1S,5R)-2-oxo-3-azabicyclo[3.1.0]hexan-3-yl)pyridin-3-yl)ethyl)-1H-pyrazol-4-yl)pyrazine-2-carboxamide], the values for the IC50 on human Factor XIa and against Human plasma kallikrein were > 10000 nM and 17.2 nM, respectively.

For `Cc1nc(C(C)n2cc(NC(=O)c3cncc(-c4c(C(F)F)ccc(Cl)c4F)n3)cn2)cnc1N1C[C@H]2C[C@H]2C1=O` (single isomer, unassigned) [Example 12, 6-(3-Chloro-6-(difluoromethyl)-2-fluorophenyl)-N-(1-((S or R)-1-(6-methyl-5-((1R,5S)-2-oxo-3-azabicyclo[3.1.0]hexan-3-yl)pyrazin-2-yl)ethyl)-1H-pyrazol-4-yl)pyrazine-2-carboxamide], the concentration for half-maximal inhibition (IC50) was determined as 1160 nM against human Factor XIa and 1.9 nM at Human plasma kallikrein.

As to `Cc1nc(C(C)n2cc(NC(=O)c3cncc(-c4c(C(F)F)ccc(Cl)c4F)n3)cn2)cnc1N1C[C@H]2C[C@H]2C1=O` (single isomer, unassigned) [Example 13, 6-(3-Chloro-6-(difluoromethyl)-2-fluorophenyl)-N-(1-((R or S)-1-(6-methyl-5-((1R,5S)-2-oxo-3-azabicyclo[3.1.0]hexan-3-yl)pyrazin-2-yl)ethyl)-1H-pyrazol-4-yl)pyrazine-2-carboxamide], the IC50 came out at 2820 nM at human Factor XIa and 0.5 nM against Human plasma kallikrein.

`Cc1ncc(-c2c(C(F)F)ccc(Cl)c2F)nc1C(=O)Nc1cnn(C(C)c2cnc(N3C[C@H]4C[C@H]4C3=O)c(C)n2)c1` (single isomer, unassigned) [Example 14, 6-(3-Chloro-6-(difluoromethyl)-2-fluorophenyl)-3-methyl-N-(1-((S or R)-1-(6-methyl-5-((1R,5S)-2-oxo-3-azabicyclo[3.1.0]hexan-3-yl)pyrazin-2-yl)ethyl)-1H-pyrazol-4-yl)pyrazine-2-carboxamide]: the values for the half-inhibitory concentration (IC50) on human Factor XIa and at Human plasma kallikrein were 550 nM and 0.8 nM, respectively.

Turning to `Cc1ncc(-c2c(C(F)F)ccc(Cl)c2F)nc1C(=O)Nc1cnn(C(C)c2cnc(N3C[C@H]4C[C@H]4C3=O)c(C)n2)c1` (single isomer, unassigned) [Example 15, 6-(3-Chloro-6-(difluoromethyl)-2-fluorophenyl)-3-methyl-N-(1-((R or S)-1-(6-methyl-5-((1R,5S)-2-oxo-3-azabicyclo[3.1.0]hexan-3-yl)pyrazin-2-yl)ethyl)-1H-pyrazol-4-yl)pyrazine-2-carboxamide], the IC50 was 992 nM against human Factor XIa and 0.4 nM at Human plasma kallikrein.

Take `Cc1nc(C(C)n2cc(NC(=O)c3cncc(-c4c(OC(F)F)ccc(Cl)c4F)n3)cn2)cnc1N1C[C@H]2C[C@H]2C1=O` (single isomer, unassigned) [Example 16, 6-(3-Chloro-6-(difluoromethoxy)-2-fluorophenyl)-N-(1-((S or R)-1-(6-methyl-5-((1R,5S)-2-oxo-3-azabicyclo[3.1.0]hexan-3-yl)pyrazin-2-yl)ethyl)-1H-pyrazol-4-yl)pyrazine-2-carboxamide]: the IC50 against human Factor XIa was determined as 772 nM; at Human plasma kallikrein it was 1.9 nM.

Take `Cc1nc(C(C)n2cc(NC(=O)c3cncc(-c4c(OC(F)F)ccc(Cl)c4F)n3)cn2)cnc1N1C[C@H]2C[C@H]2C1=O` (single isomer, unassigned) [Example 17, 6-(3-Chloro-6-(difluoromethoxy)-2-fluorophenyl)-N-(1-((R or S)-1-(6-methyl-5-((1R,5S)-2-oxo-3-azabicyclo[3.1.0]hexan-3-yl)pyrazin-2-yl)ethyl)-1H-pyrazol-4-yl)pyrazine-2-carboxamide]: the IC50 is 1740 nM against human Factor XIa and 0.7 nM against Human plasma kallikrein.

For the compound `Cc1nc(C(C)n2cc(NC(=O)c3cncc(-c4c(C(F)(F)F)ccc(Cl)c4F)n3)cn2)cnc1N1C[C@H]2C[C@H]2C1=O` (single isomer, unassigned) [Example 18], the IC50 is 4080 nM on human Factor XIa and 19.5 nM at Human plasma kallikrein.

Turning to `Cc1nc(C(C)n2cc(NC(=O)c3cncc(-c4c(C(F)(F)F)ccc(Cl)c4F)n3)cn2)cnc1N1C[C@H]2C[C@H]2C1=O` (single isomer, unassigned) [Example 19, 6-(3-Chloro-2-fluoro-6-(trifluoromethyl)phenyl)-N-(1-((R or S)-1-(6-methyl-5-((1R,5S)-2-oxo-3-azabicyclo[3.1.0]hexan-3-yl)pyrazin-2-yl)ethyl)-1H-pyrazol-4-yl)pyrazine-2-carboxamide], the IC50 against human Factor XIa was > 10000 nM; at Human plasma kallikrein, 3.7 nM.

As for `CC(c1cnc(N2C[C@H]3C[C@H]3C2=O)cn1)n1cc(NC(=O)c2cncc(-c3c(C(F)F)ccc(Cl)c3F)n2)cn1` (single isomer, unassigned) [Example 20, 6-(3-Chloro-6-(difluoromethyl)-2-fluorophenyl)-N-(1-((S or R)-1-(5-((1R,5S)-2-oxo-3-azabicyclo[3.1.0]hexan-3-yl)pyrazin-2-yl)ethyl)-1H-pyrazol-4-yl)pyrazine-2-carboxamide], the IC50 at human Factor XIa was > 10000 nM; against Human plasma kallikrein, 28.5 nM.

In the case of `Cc1ncc(-c2c(C(F)F)ccc(Cl)c2F)nc1C(=O)Nc1cnn(C(C)c2cnc(N3C[C@H]4C[C@H]4C3=O)nc2)c1` (single isomer, unassigned) [Example 29, 6-(3-Chloro-6-(difluoromethyl)-2-fluorophenyl)-3-methyl-N-(1-((S or R)-1-(2-((1R,5S)-2-oxo-3-azabicyclo[3.1.0]hexan-3-yl)pyrimidin-5-yl)ethyl)-1H-pyrazol-4-yl)pyrazine-2-carboxamide], the IC50 came out at 2040 nM at human Factor XIa and 9.6 nM on Human plasma kallikrein.

Take `Cc1ncc(-c2c(C(F)F)ccc(Cl)c2F)nc1C(=O)Nc1cnn(C(C)c2cnc(N3C[C@H]4C[C@H]4C3=O)nc2)c1` (single isomer, unassigned) [Example 30, 6-(3-Chloro-6-(difluoromethyl)-2-fluorophenyl)-3-methyl-N-(1-((R or S)-1-(2-((1R,5S)-2-oxo-3-azabicyclo[3.1.0]hexan-3-yl)pyrimidin-5-yl)ethyl)-1H-pyrazol-4-yl)pyrazine-2-carboxamide]: the IC50 against human Factor XIa was 2830 nM; on Human plasma kallikrein, 1.8 nM.

For `CC(c1cnc(N2C[C@H]3C[C@H]3C2=S)nc1)n1cc(NC(=O)c2cncc(-c3c(C(F)F)ccc(Cl)c3F)n2)cn1` (single isomer, unassigned) [Example 31, 6-(3-Chloro-6-(difluoromethyl)-2-fluorophenyl)-N-(1-((S or R)-1-(2-((1R,5S)-2-thioxo-3-azabicyclo[3.1.0]hexan-3-yl)pyrimidin-5-yl)ethyl)-1H-pyrazol-4-yl)pyrazine-2-carboxamide], the values for the concentration for half-maximal inhibition (IC50) against human Factor XIa and on Human plasma kallikrein were > 10000 nM and 6.3 nM, respectively.

Regarding `CC(c1cnc(N2C[C@H]3C[C@H]3C2=S)nc1)n1cc(NC(=O)c2cncc(-c3c(C(F)F)ccc(Cl)c3F)n2)cn1` (single isomer, unassigned) [Example 32, 6-(3-Chloro-6-(difluoromethyl)-2-fluorophenyl)-N-(1-((R or S)-1-(2-((1R,5S)-2-thioxo-3-azabicyclo[3.1.0]hexan-3-yl)pyrimidin-5-yl)ethyl)-1H-pyrazol-4-yl)pyrazine-2-carboxamide], the results for the IC50 at human Factor XIa and on Human plasma kallikrein were > 10000 nM and 16.4 nM, respectively.

Consider `Cc1nc(N2C[C@H]3C[C@H]3C2=O)ncc1C(C)n1cc(NC(=O)c2nc(-c3c(C(F)F)ccc(Cl)c3F)cnc2C)cn1` (single isomer, unassigned) [Example 42], for which the half-inhibitory concentration (IC50) against human Factor XIa stood at 1520 nM; on Human plasma kallikrein it was 0.7 nM.

With `Cc1nc(N2C[C@H]3C[C@H]3C2=O)ncc1C(C)n1cc(NC(=O)c2nc(-c3c(C(F)F)ccc(Cl)c3F)cnc2C)cn1` (single isomer, unassigned) [Example 43], the figures for the IC50 against human Factor XIa and against Human plasma kallikrein were 4510 nM and 73.4 nM, respectively.

As for `Cc1ncc(-c2c(C(F)F)ccc(Cl)c2F)nc1C(=O)Nc1cnn(C(C)c2cnc(N3C[C@H]4C[C@H]4C3=O)c(F)c2)c1` (single isomer, unassigned) [Example 51, 6-(3-Chloro-6-(difluoromethyl)-2-fluorophenyl)-N-(1-((S or R)-1-(5-fluoro-6-((1R,SS)-2-oxo-3-azabicyclo[3.1.0]hexan-3-yl)pyridin-3-yl)ethyl)-1H-pyrazol-4-yl)-3-methylpyrazine-2-carboxamide], the IC50 amounted to 1380 nM at human Factor XIa and 2.4 nM against Human plasma kallikrein.
